Article PMC7686313, “Phase 1 study of mTORC1/2 inhibitor sapanisertib (TAK-228) in advanced solid tumours, with an expansion phase in renal, endometrial or bladder cancer” (British Journal of Cancer, 2020)

Assay: Safety (adverse events, NCI CTCAE v4.0), dose-escalation phase
[1] = dose-escalation QD × 5dQW 7–13 mg
[2] = dose-escalation Total (n = 116)

Experimental: Patients who received ≥1 dose of sapanisertib were included in the safety population. […] Adverse events (AEs) were assessed using the National Cancer Institute Common Terminology Criteria for Adverse Events, v4.0. Patients were provided with a home blood-glucose meter to monitor their fasting predose blood-glucose measurements to assess hyperglycaemia as an on-target AE and PD marker.

Q: With `CC(C)n1nc(-c2ccc3oc(N)nc3c2)c2c(N)ncnc21` [Sapanisertib] as the compound, how does the “Fatigue, treatment-related grade ≥3 AE” value [1] read?
A: 2 (9) n (%)

Q: And the “Headache, treatment-related AE” value [1]?
A: 1 (5) n (%)

Q: What about the “Hypercholesterolemia, treatment-related AE” value [1] of the same compound?
A: 1 (5) n (%)

Q: What about the “Hyperglycaemia, treatment-related AE” value [1] of the same compound?
A: 11 (50) n (%)

Q: And the “Hyperglycaemia, treatment-related grade ≥3 AE” value [1]?
A: 1 (5) n (%)

Q: And the “Hypophosphatemia, treatment-related AE” value [1]?
A: 2 (9) n (%)

Q: What about the “Hypophosphatemia, treatment-related grade ≥3 AE” value [1] of the same compound?
A: 0 (0) n (%)

Q: What about the “Lymphopenia, treatment-related grade ≥3 AE” value [1] of the same compound?
A: 0 (0) n (%)

Q: And the “Nausea, treatment-related AE” value [1]?
A: 13 (59) n (%)

Q: And the “Nausea, treatment-related grade ≥3 AE” value [1]?
A: 1 (5) n (%)

Q: What about the On-study deaths [1] of the same compound?
A: 0 n (%)

Q: And the “Pruritus generalised, treatment-related AE” value [1]?
A: 1 (5) n (%)

Q: What about the “Pruritus generalised, treatment-related grade ≥3 AE” value [1] of the same compound?
A: 0 (0) n (%)

Q: What about the “Pruritus, treatment-related AE” value [1] of the same compound?
A: 3 (14) n (%)

Q: What about the “Rash maculo-papular, treatment-related AE” value [1] of the same compound?
A: 2 (9) n (%)

Q: What about the “Rash maculo-papular, treatment-related grade ≥3 AE” value [1] of the same compound?
A: 1 (5) n (%)

Q: What about the “Rash, treatment-related AE” value [1] of the same compound?
A: 3 (14) n (%)

Q: And the “Rash, treatment-related grade ≥3 AE” value [1]?
A: 0 (0) n (%)

Q: And the “Stomatitis (includes oropharyngeal pain and mucosal inflammation), treatment-related AE” value (shortened to “Stomatitis … treatment-related AE”) [1]?
A: 13 (59) n (%)

Q: What about the “Stomatitis, treatment-related grade ≥3 AE” value [1] of the same compound?
A: 3 (14) n (%)

Q: What about the “Thrombocytopenia, treatment-related grade ≥3 AE” value [1] of the same compound?
A: 0 (0) n (%)

Q: And the “Vomiting, treatment-related AE” value [1]?
A: 10 (45) n (%)

Q: What about the “Weight decreased, treatment-related AE” value [1] of the same compound?
A: 2 (9) n (%)

Q: What about the “Acute kidney injury, treatment-related AE” value (dose-escalation QW 7–40 mg) of the same compound?
A: 0 (0) n (%)

Q: What about the “Anaemia, treatment-related AE” value (dose-escalation QW 7–40 mg) of the same compound?
A: 1 (3) n (%)

Q: And the “Any AE” value (dose-escalation QW 7–40 mg)?
A: 30 (100) n (%)

Q: And the “Any AE resulting in dose modification/interruption” value (dose-escalation QW 7–40 mg)?
A: 13 (43) n (%)

Q: And the “Any AE resulting in treatment discontinuation” value (dose-escalation QW 7–40 mg)?
A: 4 (13) n (%)

Q: What about the “Any SAE” value (dose-escalation QW 7–40 mg) of the same compound?
A: 10 (33) n (%)

Q: What about the “Any grade ≥3 AE” value (dose-escalation QW 7–40 mg) of the same compound?
A: 18 (60) n (%)

Q: What about the “Any treatment-related AE” value (dose-escalation QW 7–40 mg) of the same compound?
A: 28 (93) n (%)

Q: What about the “Any treatment-related SAE” value (dose-escalation QW 7–40 mg) of the same compound?
A: 0 n (%)

Q: What about the “Any treatment-related grade ≥3 AE” value (dose-escalation QW 7–40 mg) of the same compound?
A: 8 (27) n (%)

Q: And the “Asthenia, treatment-related AE” value (dose-escalation QW 7–40 mg)?
A: 12 (40) n (%)

Q: What about the “Asthenia, treatment-related grade ≥3 AE” value (dose-escalation QW 7–40 mg) of the same compound?
A: 1 (3) n (%)

Q: And the “Blood creatinine increased, treatment-related AE” value (dose-escalation QW 7–40 mg)?
A: 3 (10) n (%)

Q: And the “Decreased appetite, treatment-related AE” value (dose-escalation QW 7–40 mg)?
A: 8 (27) n (%)

Q: And the “Dehydration, treatment-related AE” value (dose-escalation QW 7–40 mg)?
A: 1 (3) n (%)

Q: What about the “Dehydration, treatment-related grade ≥3 AE” value (dose-escalation QW 7–40 mg) of the same compound?
A: 0 (0) n (%)

Q: What about the “Diarrhoea, treatment-related AE” value (dose-escalation QW 7–40 mg) of the same compound?
A: 9 (30) n (%)

Q: What about the “Diarrhoea, treatment-related grade ≥3 AE” value (dose-escalation QW 7–40 mg) of the same compound?
A: 1 (3) n (%)

Q: What about the “Dry mouth, treatment-related AE” value (dose-escalation QW 7–40 mg) of the same compound?
A: 3 (10) n (%)

Q: What about the “Dysgeusia, treatment-related AE” value (dose-escalation QW 7–40 mg) of the same compound?
A: 3 (10) n (%)

Q: What about the “Dyspepsia, treatment-related AE” value (dose-escalation QW 7–40 mg) of the same compound?
A: 1 (3) n (%)

Q: And the “Fatigue, treatment-related AE” value (dose-escalation QW 7–40 mg)?
A: 8 (27) n (%)

Q: What about the “Fatigue, treatment-related grade ≥3 AE” value (dose-escalation QW 7–40 mg) of the same compound?
A: 2 (7) n (%)

Q: What about the “Headache, treatment-related AE” value (dose-escalation QW 7–40 mg) of the same compound?
A: 2 (7) n (%)

Q: What about the “Hypercholesterolemia, treatment-related AE” value (dose-escalation QW 7–40 mg) of the same compound?
A: 1 (3) n (%)

Q: And the “Hyperglycaemia, treatment-related AE” value (dose-escalation QW 7–40 mg)?
A: 17 (57) n (%)

Q: What about the “Hyperglycaemia, treatment-related grade ≥3 AE” value (dose-escalation QW 7–40 mg) of the same compound?
A: 2 (7) n (%)

Q: What about the “Hypophosphatemia, treatment-related AE” value (dose-escalation QW 7–40 mg) of the same compound?
A: 0 (0) n (%)

Q: What about the “Hypophosphatemia, treatment-related grade ≥3 AE” value (dose-escalation QW 7–40 mg) of the same compound?
A: 0 (0) n (%)

Q: And the “Lymphopenia, treatment-related grade ≥3 AE” value (dose-escalation QW 7–40 mg)?
A: 1 (3) n (%)

Q: And the “Nausea, treatment-related AE” value (dose-escalation QW 7–40 mg)?
A: 22 (73) n (%)

Q: And the “Nausea, treatment-related grade ≥3 AE” value (dose-escalation QW 7–40 mg)?
A: 0 (0) n (%)

Q: What about the On-study deaths (dose-escalation QW 7–40 mg) of the same compound?
A: 1 (3) n (%)

Q: What about the “Pruritus generalised, treatment-related AE” value (dose-escalation QW 7–40 mg) of the same compound?
A: 0 (0) n (%)

Q: And the “Pruritus generalised, treatment-related grade ≥3 AE” value (dose-escalation QW 7–40 mg)?
A: 0 (0) n (%)

Q: What about the “Pruritus, treatment-related AE” value (dose-escalation QW 7–40 mg) of the same compound?
A: 2 (7) n (%)

Q: What about the “Rash maculo-papular, treatment-related AE” value (dose-escalation QW 7–40 mg) of the same compound?
A: 0 (0) n (%)

Q: What about the “Rash maculo-papular, treatment-related grade ≥3 AE” value (dose-escalation QW 7–40 mg) of the same compound?
A: 0 (0) n (%)

Q: What about the “Rash, treatment-related AE” value (dose-escalation QW 7–40 mg) of the same compound?
A: 2 (7) n (%)

Q: And the “Rash, treatment-related grade ≥3 AE” value (dose-escalation QW 7–40 mg)?
A: 0 (0) n (%)

Q: What about the “Stomatitis … treatment-related AE” value (dose-escalation QW 7–40 mg) of the same compound?
A: 9 (30) n (%)

Q: What about the “Stomatitis, treatment-related grade ≥3 AE” value (dose-escalation QW 7–40 mg) of the same compound?
A: 0 (0) n (%)

Q: What about the “Thrombocytopenia, treatment-related grade ≥3 AE” value (dose-escalation QW 7–40 mg) of the same compound?
A: 0 (0) n (%)

Q: What about the “Vomiting, treatment-related AE” value (dose-escalation QW 7–40 mg) of the same compound?
A: 17 (57) n (%)

Q: And the “Weight decreased, treatment-related AE” value (dose-escalation QW 7–40 mg)?
A: 2 (7) n (%)

Q: And the “Acute kidney injury, treatment-related AE” value [2]?
A: 1 (1) n (%)

Q: And the “Anaemia, treatment-related AE” value [2]?
A: 5 (4) n (%)

Q: And the “Any AE” value [2]?
A: 116 (100) n (%)

Q: What about the “Any AE resulting in dose modification/interruption” value [2] of the same compound?
A: 68 (59) n (%)

Q: And the “Any AE resulting in treatment discontinuation” value [2]?
A: 28 (24) n (%)

Q: And the “Any SAE” value [2]?
A: 50 (43) n (%)

Q: And the “Any grade ≥3 AE” value [2]?
A: 76 (66) n (%)

Q: What about the “Any treatment-related AE” value [2] of the same compound?
A: 112 (97) n (%)

Q: And the “Any treatment-related SAE” value [2]?
A: 17 (15) n (%)

Q: What about the “Any treatment-related grade ≥3 AE” value [2] of the same compound?
A: 49 (42) n (%)

Q: And the “Asthenia, treatment-related AE” value [2]?
A: 37 (32) n (%)

Q: What about the “Asthenia, treatment-related grade ≥3 AE” value [2] of the same compound?
A: 9 (8) n (%)

Q: And the “Blood creatinine increased, treatment-related AE” value [2]?
A: 12 (10) n (%)

Q: And the “Decreased appetite, treatment-related AE” value [2]?
A: 43 (37) n (%)

Q: What about the “Dehydration, treatment-related AE” value [2] of the same compound?
A: 5 (4) n (%)

Q: And the “Dehydration, treatment-related grade ≥3 AE” value [2]?
A: 1 (1) n (%)

Q: And the “Diarrhoea, treatment-related AE” value [2]?
A: 41 (35) n (%)

Q: What about the “Diarrhoea, treatment-related grade ≥3 AE” value [2] of the same compound?
A: 2 (2) n (%)

Q: What about the “Dry mouth, treatment-related AE” value [2] of the same compound?
A: 12 (10) n (%)

Q: What about the “Dysgeusia, treatment-related AE” value [2] of the same compound?
A: 19 (16) n (%)

Q: What about the “Dyspepsia, treatment-related AE” value [2] of the same compound?
A: 3 (3) n (%)

Q: What about the “Fatigue, treatment-related AE” value [2] of the same compound?
A: 35 (30) n (%)

Q: And the “Fatigue, treatment-related grade ≥3 AE” value [2]?
A: 4 (3) n (%)

Q: And the “Headache, treatment-related AE” value [2]?
A: 6 (5) n (%)

Q: What about the “Hypercholesterolemia, treatment-related AE” value [2] of the same compound?
A: 11 (9) n (%)

Q: What about the “Hyperglycaemia, treatment-related AE” value [2] of the same compound?
A: 75 (65) n (%)

Q: And the “Hyperglycaemia, treatment-related grade ≥3 AE” value [2]?
A: 16 (14) n (%)

Q: What about the “Hypophosphatemia, treatment-related AE” value [2] of the same compound?
A: 7 (6) n (%)

Q: What about the “Hypophosphatemia, treatment-related grade ≥3 AE” value [2] of the same compound?
A: 3 (3) n (%)

Q: What about the “Lymphopenia, treatment-related grade ≥3 AE” value [2] of the same compound?
A: 5 (4) n (%)

Q: What about the “Nausea, treatment-related AE” value [2] of the same compound?
A: 71 (61) n (%)

Q: What about the “Nausea, treatment-related grade ≥3 AE” value [2] of the same compound?
A: 3 (3) n (%)

Q: And the On-study deaths [2]?
A: 4 (3) n (%)

Q: And the “Pruritus generalised, treatment-related AE” value [2]?
A: 15 (13) n (%)

Q: And the “Pruritus generalised, treatment-related grade ≥3 AE” value [2]?
A: 3 (3) n (%)

Q: What about the “Pruritus, treatment-related AE” value [2] of the same compound?
A: 8 (7) n (%)

Q: And the “Rash maculo-papular, treatment-related AE” value [2]?
A: 6 (5) n (%)

Q: And the “Rash maculo-papular, treatment-related grade ≥3 AE” value [2]?
A: 3 (3) n (%)

Q: What about the “Rash, treatment-related AE” value [2] of the same compound?
A: 20 (17) n (%)

Q: What about the “Rash, treatment-related grade ≥3 AE” value [2] of the same compound?
A: 2 (2) n (%)

Q: And the “Stomatitis … treatment-related AE” value [2]?
A: 56 (48) n (%)

Q: What about the “Stomatitis, treatment-related grade ≥3 AE” value [2] of the same compound?
A: 8 (7) n (%)

Q: And the “Thrombocytopenia, treatment-related grade ≥3 AE” value [2]?
A: 2 (2) n (%)

Q: What about the “Vomiting, treatment-related AE” value [2] of the same compound?
A: 53 (46) n (%)

Q: And the “Weight decreased, treatment-related AE” value [2]?
A: 7 (6) n (%)
